Results taken from the NIST ThermoML archive (doi:10.1007/s10765-015-2006-0).
± gives the expanded uncertainty stated by the source.

Tests used:
[1] = mn = molality of the nth substance listed, in mol/kg; conditions: 101 kPa, Liquid, Frequency=3 MHz, Sing-around technique in a fixed-path interferometer
[2] = 101 kPa, Liquid, Frequency=3 MHz, Sing-around technique in a fixed-path interferometer

O=C([O-])CC(O)(CC(=O)[O-])C(=O)[O-].[NH4+].[NH4+].[NH4+] [ammonium 2-hydroxypropane-1,2,3-tricarboxylate] + O
speed of sound [m/s], [1]
Conditions	288.15 K	298.15 K	308.15 K	318.15 K
m1 = 0.2	1503.6 ± 3.4	1532.2 ± 3.4	1553.8 ± 3.4	1569 ± 3.4
m1 = 0.4	1540.7 ± 3.4	1567.5 ± 3.4	1587.7 ± 3.4	1602.1 ± 3.4
m1 = 0.6	1578.5 ± 3.4	1603.3 ± 3.4	1622 ± 3.4	1635.2 ± 3.4
m1 = 0.8	1615.6 ± 3.4	1638.6 ± 3.4	1655.7 ± 3.4	1667.6 ± 3.4

CC(C)[C@H](N)C(=O)O [L-valine] + O
speed of sound [m/s], [1]
Conditions	m1 = 0.00555	m1 = 0.02398	m1 = 0.03504	m1 = 0.05824	m1 = 0.07873	m1 = 0.09938	m1 = 0.2068	m1 = 0.2992	m1 = 0.4017
288.15 K	1467.4 ± 3.4	1467.3 ± 3.4	1469.7 ± 3.4	1469.6 ± 3.4	1472.8 ± 3.4	1474.8 ± 3.4	1477 ± 3.4	1488.4 ± 3.4	1497.2 ± 3.4
298.15 K	1497.5 ± 3.4	1497.4 ± 3.4	1499.6 ± 3.4	1499.7 ± 3.4	1502.4 ± 3.4	1504.4 ± 3.4	1506.2 ± 3.4	1516.6 ± 3.4	1524.8 ± 3.4
308.15 K	1520.4 ± 3.4	1520.4 ± 3.4	1522 ± 3.4	1522.6 ± 3.4	1525 ± 3.4	1526.9 ± 3.4	1528.2 ± 3.4	1537.8 ± 3.4	1545.2 ± 3.4
318.15 K	1537.1 ± 3.4	1537.4 ± 3.4	1538.7 ± 3.4	1539 ± 3.4	1541.2 ± 3.4	1542.7 ± 3.4	1544.4 ± 3.4	1552.5 ± 3.4	1560.4 ± 3.4

O [water]
[2]
Conditions	speed of sound [m/s]
288.15 K	1463.1 ± 3.4
298.15 K	1495.8 ± 3.4
308.15 K	1519.1 ± 3.4

C[C@H](N)C(=O)O [(S)-2-aminopropanoic acid] + O
speed of sound [m/s], [1]
Conditions	m1 = 0.00939	m1 = 0.04689	m1 = 0.09896	m1 = 0.2003	m1 = 0.2979	m1 = 0.3997	m1 = 0.4941	m1 = 0.6099	m1 = 0.6973	m1 = 0.7978
288.15 K	1467.6 ± 3.4	1469.9 ± 3.4	1472.8 ± 3.4	1480.3 ± 3.4	1487.3 ± 3.4	1494.3 ± 3.4	1500.3 ± 3.4	1509.5 ± 3.4	1513.3 ± 3.4	1520 ± 3.4
298.15 K	1497.9 ± 3.4	1499.8 ± 3.4	1502.8 ± 3.4	1509.6 ± 3.4	1515.9 ± 3.4	1522.7 ± 3.4	1528 ± 3.4	1536.7 ± 3.4	1540.4 ± 3.4	1546.2 ± 3.4
308.15 K	1520.8 ± 3.4	1522.7 ± 3.4	1525.5 ± 3.4	1531.8 ± 3.4	1537.9 ± 3.4	1544 ± 3.4	1549 ± 3.4	1556.8 ± 3.4	1560.7 ± 3.4	1566 ± 3.4
318.15 K	1537 ± 3.4	1539.2 ± 3.4	1542 ± 3.4	1547.9 ± 3.4	1553.2 ± 3.4	1558.7 ± 3.4	1564.1 ± 3.4	1571.4 ± 3.4	1574.7 ± 3.4	1611.9 ± 3.4

NCC(=O)O [2-aminoacetic acid] + O
speed of sound [m/s], [1]
Conditions	m1 = 0.01207	m1 = 0.0523	m1 = 0.1037	m1 = 0.2037	m1 = 0.3068	m1 = 0.4124	m1 = 0.5028	m1 = 0.6058	m1 = 0.6829	m1 = 0.82
288.15 K	1467.2 ± 3.4	1470.1 ± 3.4	1472.3 ± 3.4	1477.8 ± 3.4	1483.4 ± 3.4	1488.7 ± 3.4	1494.5 ± 3.4	1499.2 ± 3.4	1503.4 ± 3.4	1510.2 ± 3.4
298.15 K	1497.7 ± 3.4	1500.1 ± 3.4	1502.3 ± 3.4	1507.2 ± 3.4	1512.4 ± 3.4	1517.8 ± 3.4	1523 ± 3.4	1527.3 ± 3.4	1531.3 ± 3.4	1537.7 ± 3.4
308.15 K	1520 ± 3.4	1522.9 ± 3.4	1524.7 ± 3.4	1529.7 ± 3.4	1534.6 ± 3.4	1539.7 ± 3.4	1543.8 ± 3.4	1548.7 ± 3.4	1552.5 ± 3.4	1558.6 ± 3.4
318.15 K	1537.2 ± 3.4	1538.9 ± 3.4	1541.1 ± 3.4	1545.8 ± 3.4	1551.4 ± 3.4	1555.4 ± 3.4	1560.2 ± 3.4	1564.1 ± 3.4	1567.7 ± 3.4	1573.5 ± 3.4
